The structures appear in SMILES notation.

One test concerns SKOV-3. Briefly: Growth inhibition, SRB assay, SKOV-3. Type of test: cell-based, human. To be noted: Homo sapiens, SK-OV-3, 48 h. The source says:
(§1) Table 2 refers to the growth inhibitory effect of COMP, olaparib and cisplatin (CDDP) in a panel of human immortalized breast (T47D, MCF-7, MDA-MB-231, MDA-MB-468, SK-BR-3 and HCC1937), ovarian and endocervical (OCVAR, SKOV-3, […],IGROV-1 and HeLa), pancreatic (PANC-1 and MIAPACA), neuroblastoma (SHSY-5Y), lung (NCI-H460), prostate (VCaP) melanoma (A375 and SK-MEL-5) and glioblastoma (SF-208) cancer cells, immortalized normal MCF10a and HFF1 human cells, and patient-derived ovarian (PD-OVCA #1, #9, #41, #49 and #62) cancer cells. […] Data are mean±SEM (n=5).
(§2) In an embodiment, IC50 values were determined by Sulforhodamine B (SRB) or MTS [3-(4,5-dimethylthiazol-2-yl)-5-(3-carboxymethoxyphenyl)-2-(4-sulfophenyl)-2H-tetrazolium] assay in immortalized and PD-OVCA cells, respectively. Cancer cells were plated in 96-well plates and incubated for 24 hours. Cells were then exposed to serial dilutions of compounds for 48 hours. The solvent DMSO corresponding to the maximum concentration used in these assays (0.025%) was included as control. Results are the mean±S.E.M. of 3-5 independent experiments.
(In general: The SRB assay estimates cell density from bound dye.)

The test system of test [1] is MDA-MB-231, HCC1937 and IGROV-1 cells. Put plainly: Combination with CDDP or olaparib, SRB assay. Format: cell-based, human. To be noted: single concentration of COMP with concentration range of CDDP or olaparib, 48 hours; CI<1, synergy. The protocol:
FIG. 13 illustrates that COMP sensitizes triple-negative breast cancer and ovarian cancer cells to the effect of cisplatin (CDDP) and olaparib. Cells were treated with a concentration range of CDDP and olaparib alone and in combination with a single concentration of COMP (with no significant effect on cells growth) in MDA-MB-231 (FIG. 13A), HCC1937 (FIG. 13B) and IGROV-1 (FIG. 13C). Cell proliferation was measured by SRB assay after 48 hours of treatment; growth obtained with control (DMSO) was set as 100%. […] Combination index (CI) and dose-reduction index (DRI) for each combined treatment were calculated using CompuSyn software (CI<1, synergy; 1<CI<1.1, addictive effect; CI>1.1, antagonism); data were calculated using a mean value effect of six independent experiments.
In an embodiment, COMP sensitizes triple-negative breast cancer and ovarian cancer cells to the effect of CDDP and olaparib as shown by the enhancement of the growth inhibitory effect and promising synergistic effects between COMP and CDDP or olaparib (CI<1), with a noticeable reduction in the effective dose of chemotherapeutic agents (FIGS. 13A-C).

The next test deals with PANC-1. Briefly: Growth inhibition, SRB assay, PANC-1. Type of test: cell-based. To be noted: Homo sapiens, PANC-1, wild-type BRCA1/2, 48 hours.
From the text: as §1, §2

The subject of a further test is NCI-H460. Put plainly: Growth inhibition, SRB assay, NCI-H460. Type of test: cell-based. To be noted: Homo sapiens, NCI-H460, wild-type BRCA1/2, 48 hours.
From the text: as §1, §2

Test [2] relates to triple-negative breast cancer and ovarian cancer cells. Briefly: Cell cycle progression by flow cytometry (propidium iodide). To be noted: MDA-MB-231 cells, 6 and 12 μM, 48 hours. Format: cell-based, human. The protocol:
(§3) Cell cycle phases were analysed by flow cytometry using propidium iodide (PI) and quantified using the FlowJo software. Apoptosis and ROS were analysed by flow cytometry using FITC-Annexin V/PI and 2′,7′-dichlorodihydrofluorescein diacetate (H2DCFDA) respectively.
In an embodiment, the COMP compound modulated the expression of key proteins involved in homologous DNA repair, proliferation, chemoresistance, induced cell cycle arrest, apoptosis and ROS generation, in triple-negative breast cancer and ovarian cancer cells.

In test [3] the test system is MDA-MB-231, HCC1937 and IGROV-1 cells. Briefly: DNA damage by comet assay. Format: cell-based, human. To be noted: 6 μM and 12 μM, 48 hours. The protocol: FIG. 8 illustrates the effect of 6 and 12 μM COMP on triple-negative breast cancer and ovarian cancer cells' DNA damage after 48 hours of treatment, measured by comet assay. FIG. 8A are representative images (scale bar=20 μm; 200× magnification).
In an embodiment, COMP decreased homologous recombination DNA repair and disrupted the BRCA1-BARD1 interaction.

For another test, the system named is SK-BR-3. Put plainly: Growth inhibition, SRB assay, SK-BR-3. To be noted: Homo sapiens, SK-BR-3, 48 h. Format: cell-based, human.
From the text: as §1, §2

For test [4], the system named is triple-negative breast cancer and ovarian cancer cells (MDA-MB-231, IGROV-1, HCC1937). Put plainly: Colony-formation assay. The note with it: 8 days (MDA-MB-231 and IGROV-1), 16 days (HCC1937) of treatment. Format: cell-based, human. The protocol:
FIG. 4 illustrates the effect of COMP on (A-B) colony formation of cancer cells after 8 days (MDA-MB-231 and IGROV-1) and 16 days (HCC1937) of treatment. In FIG. 4A, representative experiments are shown.
In an embodiment, colony-formation assay was performed.

Test [5] has as its system triple-negative breast cancer and ovarian cancer cells. Put plainly: Apoptosis by flow cytometry (FITC-Annexin V/PI). Type of test: cell-based, human. To be noted: 6 and 12 μM, 48 hours. The protocol: as §3
For orientation: A flow cytometer gives signals particle by particle.

Another test relates to BRCA1-BARD1 interaction. Put plainly: Co-IP of BRCA1-BARD1 interaction. Type of test: cell-based, human. To be noted: 12 and 20 μM; 18 hours (MDA-MB-231, HCC1937), 24 hours (IGROV-1). The protocol:
(FIGS. 11A-D) Co-IP was performed in MDA-MB-231 (FIG. 11A), HCC1937 (FIG. 11B) and IGROV-1 (FIG. 11C) cells treated with 12 and 20 μM COMP for 18 hours (in MDA-MB-231 and HCC1937 cells) and 24 hours (in IGROV-1 cells). Assay was performed using the Pierce classic magnetic IP and Kit followed by western blot detection. In FIGS. 11A-C, representative immunoblots are shown; whole-cell lysate (Input).

Test [6] has as its system PD-OVCA#1 (Lack of exon 17 in BRCA1). Put plainly: Growth inhibition, MTS assay, PD-OVCA#1. Type of test: cell-based, human. The note with it: Homo sapiens, PD-OVCA#1, pathogenic mutant BRCA1/2, 48 hours.
From the text: as §1, §2
A general note: Tetrazolium dyes change colour on reduction, which living cells bring about.

The subject of the next test is MCF10a. Put plainly: Growth inhibition, SRB assay, normal MCF10a cells. Type of test: cell-based, human. To be noted: Homo sapiens, MCF-10A, 48 hours.
From the text: as §1, §2

The subject of a further test is HCC1937 (5382insC). Put plainly: Growth inhibition, SRB assay, HCC1937. To be noted: Homo sapiens, HCC1937, 48 h. Format: cell-based, human.
From the text: as §1, §2

By IC50 is commonly meant the midpoint of a concentration-inhibition curve. A higher IC50 goes with weaker potency in that assay. For the molecule `CC[C@H]1CN(C)C2Cc3c([nH]c4ccccc34)/C(=N/Nc3ccc(Br)cn3)C[C@@H]1[C@@H]2C(=O)OC` [COMP, methyl (5R,6S,14S,E)-8-(2-(5-bromopyridin-2-yl) hydrazineylidene)-5-ethyl-3-methyl-2,3,4,5,6,7,8,9-octahydro-1H-2,6-methanoazecino [5,4-b]indole-14-carboxylate], the IC50 was 8.9 ± 2.5 µM in the test on SKOV-3 (SKOV-3, wild-type BRCA1/2, 48 hours); 8.9 µM with SKOV-3 (Skov-3, BRCA1 wild-type, 48 hours (second Table 2)); 4.4 ± 0.9 µM with PANC-1; 15.5 ± 1.5 µM in the test on NCI-H460; 5.7 ± 1.4 µM in the test with SK-BR-3 (SK-BR-3, BRCA1 loss of heterozigoty, 48 hours); 5.7 µM in the test on SK-BR-3 (SK-BR-3, BRCA1 loss of heterozygosity, 48 hours (second Table 2)). Also, the IC50 came out at 2.7 ± 0.6 µM in test [6]; 29.5 µM in the test with MCF10a; 5.2 µM in the test on HCC1937 (5382insC) (HCC1937, BRCA1 mutant, 48 hours (second Table 2)); 5.2 ± 1.3 µM in the test on HCC1937 (5382insC) (HCC1937, mutant BRCA1, 48 hours). Besides, the “Combination index (CI) of COMP with CDDP or olaparib” value in test [1] is reported as under 1. Further, the “cell cycle arrest phase” value in [2] is reported as “cell cycle arrest at G0/G1-”. Also, the “percentage of comet-positive cells (tail DNA, tail moment)” value in test [3] was “significantly increased”. For the same molecule, in test [4], the “colony-forming ability of cancer cells” value was “significantly reduced”. Moreover, the “apoptotic cell death (Annexin-V-positive cells)” value in [5] was “significant increase in apoptotic cell death”. For the same molecule, the “BRCA1-BARD1 interaction (BARD1 co-immunoprecipitated with BRCA1)” value in the test on BRCA1-BARD1 interaction is reported as “disruption of the BRCA1-BARD1 interaction”.
